Common to all, as to assay: relative viability (nuclei count vs DMSO), 5 days (fraction); higher = more cells survive
Compound in the assay “Vismodegib + OSI-027”: CS(=O)(=O)c1ccc(C(=O)Nc2ccc(Cl)c(-c3ccccn3)c2)c(Cl)c1 [Vismodegib] + COc1cccc2cc(-c3nc([C@H]4CC[C@H](C(=O)O)CC4)n4ncnc(N)c34)[nH]c12 [OSI-027] (partner 0.5 µM)
The method, boiled down: (§1)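 Nuclei were stained with Hoechst during a one-step fixation (final 0.05% Triton X-100, 1% formaldehyde, 1 ug/ml Hoechst) carried out 5 days after dosing, then counted on 4× images. The cells, lung cancer lines in 1536-well plates, had been dosed by pin tool the day after seeding with one drug alone or a fixed anchor-drug dose plus five library-drug doses (not always all listed) in √10 steps. Relative viability is the nuclei count in treated wells divided by that in vehicle wells, and each value is the median of duplicate plates.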

Compound in assay [1]: N#CC[C@H](C1CCCC1)n1cc(-c2ncnc3[nH]ccc23)cn1 [Ruxolitinib] + CC(=O)c1c(C)c2cnc(Nc3ccc(N4CCNCC4)cn3)nc2n(C2CCCC2)c1=O [Palbociclib] (partner 0.5 µM)
The method, boiled down: as §1

Compound in the assay “Ruxolitinib + Foretinib”: N#CC[C@H](C1CCCC1)n1cc(-c2ncnc3[nH]ccc23)cn1 [Ruxolitinib] + COc1cc2c(Oc3ccc(NC(=O)C4(C(=O)Nc5ccc(F)cc5)CC4)cc3F)ccnc2cc1OCCCN1CCOCC1 [Foretinib] (partner 0.25 µM)
The method, boiled down: as §1

Compound in the assay “Ruxolitinib + Pictilisib”: N#CC[C@H](C1CCCC1)n1cc(-c2ncnc3[nH]ccc23)cn1 [Ruxolitinib] + CS(=O)(=O)N1CCN(Cc2cc3nc(-c4cccc5[nH]ncc45)nc(N4CCOCC4)c3s2)CC1 [Pictilisib] (partner 1 µM)
A digest of the protocol:
as §1

Regarding 201T, the relative viability in the assay with Vismodegib + OSI-027 (first compound 0.08 µM) came to 0.834; with Vismodegib + OSI-027 (first compound 0.253 µM), 0.741; in the assay with Vismodegib + OSI-027 (first compound 0.8 µM), 0.733; with Vismodegib + OSI-027 (first compound 2.53 µM) it was 0.731; with Vismodegib + OSI-027 (first compound 8 µM) it was 0.747; in assay [1] (first compound 0.08 µM), 0.366. Further, the relative viability in assay [1] (first compound 0.253 µM) amounted to 0.362; in assay [1] (first compound 0.8 µM) it was 0.407; in assay [1] (first compound 2.53 µM), 0.433; in assay [1] (first compound 8 µM), 0.397; with Ruxolitinib + Foretinib (first compound 0.08 µM), 1.11; with Ruxolitinib + Foretinib (first compound 0.8 µM) it was 1.43. The relative viability with Ruxolitinib + Foretinib (first compound 2.53 µM) was determined as 1.1; with Ruxolitinib + Foretinib (first compound 8 µM), 1.26; with Ruxolitinib + Pictilisib (first compound 0.08 µM) it was 0.745; in the assay with Ruxolitinib + Pictilisib (first compound 0.253 µM), 0.687; in the assay with Ruxolitinib + Pictilisib (first compound 0.8 µM), 0.75; with Ruxolitinib + Pictilisib (first compound 2.53 µM), 0.826. Also, in the assay with Ruxolitinib + Pictilisib (first compound 8 µM), the relative viability came out at 0.8.

As to A549, the relative viability was found to be 0.926 with Ruxolitinib + Foretinib (first compound 0.08 µM); 0.926 with Ruxolitinib + Foretinib (first compound 0.253 µM); 1.08 with Ruxolitinib + Foretinib (first compound 0.8 µM); 0.834 with Ruxolitinib + Foretinib (first compound 2.53 µM); 0.632 with Ruxolitinib + Foretinib (first compound 8 µM); 0.579 with Ruxolitinib + Pictilisib (first compound 0.08 µM). Besides, the relative viability with Ruxolitinib + Pictilisib (first compound 0.253 µM) came out at 0.529; with Ruxolitinib + Pictilisib (first compound 0.8 µM), 0.576; with Ruxolitinib + Pictilisib (first compound 2.53 µM), 0.407; with Ruxolitinib + Pictilisib (first compound 8 µM), 0.233.

Consider A-427, for which the relative viability came out at 0.471 with Vismodegib + OSI-027 (first compound 0.08 µM); 0.464 with Vismodegib + OSI-027 (first compound 0.253 µM); 0.446 with Vismodegib + OSI-027 (first compound 0.8 µM); 0.405 with Vismodegib + OSI-027 (first compound 2.53 µM); 0.484 with Vismodegib + OSI-027 (first compound 8 µM); 0.557 in assay [1] (first compound 0.08 µM). Moreover, the relative viability in assay [1] (first compound 0.253 µM) came out at 0.516; in assay [1] (first compound 0.8 µM) it was 0.556; in assay [1] (first compound 2.53 µM), 0.499; in assay [1] (first compound 8 µM) it was 0.464; in the assay with Ruxolitinib + Foretinib (first compound 0.08 µM), 0.992; with Ruxolitinib + Foretinib (first compound 0.253 µM), 1.1. Also, the relative viability with Ruxolitinib + Foretinib (first compound 0.8 µM) was determined as 1.06; in the assay with Ruxolitinib + Foretinib (first compound 2.53 µM), 0.918; in the assay with Ruxolitinib + Foretinib (first compound 8 µM), 0.988; in the assay with Ruxolitinib + Pictilisib (first compound 0.08 µM), 0.742; with Ruxolitinib + Pictilisib (first compound 0.253 µM), 0.749; in the assay with Ruxolitinib + Pictilisib (first compound 0.8 µM) it was 0.773. In addition, the relative viability in the assay with Ruxolitinib + Pictilisib (first compound 2.53 µM) turned out to be 0.371; in the assay with Ruxolitinib + Pictilisib (first compound 8 µM), 0.629.

With ABC-1, the relative viability in the assay with Vismodegib + OSI-027 (first compound 0.08 µM) worked out at 0.638; with Vismodegib + OSI-027 (first compound 0.253 µM), 0.392; in the assay with Vismodegib + OSI-027 (first compound 0.8 µM) it was 0.581; with Vismodegib + OSI-027 (first compound 2.53 µM), 0.403; with Vismodegib + OSI-027 (first compound 8 µM) it was 0.52; in assay [1] (first compound 0.253 µM), 0.831. Moreover, the relative viability came out at 0.652 in assay [1] (first compound 0.8 µM); 0.808 in assay [1] (first compound 2.53 µM); 0.754 in assay [1] (first compound 8 µM); 1.35 with Ruxolitinib + Foretinib (first compound 0.253 µM); 1.33 in the assay with Ruxolitinib + Foretinib (first compound 0.8 µM); 0.975 in the assay with Ruxolitinib + Foretinib (first compound 2.53 µM). The relative viability is 0.99 in the assay with Ruxolitinib + Foretinib (first compound 8 µM); 0.875 with Ruxolitinib + Pictilisib (first compound 0.08 µM); 0.742 with Ruxolitinib + Pictilisib (first compound 0.253 µM); 0.867 with Ruxolitinib + Pictilisib (first compound 0.8 µM); 0.705 with Ruxolitinib + Pictilisib (first compound 2.53 µM); 0.738 in the assay with Ruxolitinib + Pictilisib (first compound 8 µM).

BEN: the relative viability in the assay with Vismodegib + OSI-027 (first compound 0.08 µM) turned out to be 0.336; in the assay with Vismodegib + OSI-027 (first compound 0.253 µM), 0.308; with Vismodegib + OSI-027 (first compound 0.8 µM), 0.272; with Vismodegib + OSI-027 (first compound 2.53 µM) it was 0.294; in the assay with Vismodegib + OSI-027 (first compound 8 µM), 0.311; in assay [1] (first compound 0.08 µM), 0.488. In addition, the relative viability in assay [1] (first compound 0.253 µM) stood at 0.456; in assay [1] (first compound 0.8 µM), 0.504; in assay [1] (first compound 2.53 µM), 0.503; in assay [1] (first compound 8 µM), 0.51; in the assay with Ruxolitinib + Foretinib (first compound 0.08 µM), 0.773; with Ruxolitinib + Foretinib (first compound 0.253 µM), 0.634. Besides, the relative viability in the assay with Ruxolitinib + Foretinib (first compound 0.8 µM) is 0.729; with Ruxolitinib + Foretinib (first compound 2.53 µM), 0.62; with Ruxolitinib + Foretinib (first compound 8 µM), 0.612; with Ruxolitinib + Pictilisib (first compound 0.08 µM) it was 0.494; with Ruxolitinib + Pictilisib (first compound 0.253 µM), 0.583; with Ruxolitinib + Pictilisib (first compound 0.8 µM) it was 0.647. Besides, the relative viability came out at 0.53 with Ruxolitinib + Pictilisib (first compound 2.53 µM) and 0.584 with Ruxolitinib + Pictilisib (first compound 8 µM).

Consider CAL-12T, for which the relative viability amounted to 0.776 with Vismodegib + OSI-027 (first compound 0.08 µM); 0.462 with Vismodegib + OSI-027 (first compound 0.253 µM); 0.774 with Vismodegib + OSI-027 (first compound 0.8 µM); 0.636 in the assay with Vismodegib + OSI-027 (first compound 2.53 µM); 0.654 with Vismodegib + OSI-027 (first compound 8 µM); 0.316 in assay [1] (first compound 0.08 µM). Besides, the relative viability in assay [1] (first compound 0.253 µM) turned out to be 0.334; in assay [1] (first compound 0.8 µM) it was 0.461; in assay [1] (first compound 2.53 µM) it was 0.363; in assay [1] (first compound 8 µM), 0.223; with Ruxolitinib + Foretinib (first compound 0.08 µM), 1.19; with Ruxolitinib + Foretinib (first compound 0.253 µM), 1.15. Moreover, the relative viability in the assay with Ruxolitinib + Foretinib (first compound 0.8 µM) came to 1.17; in the assay with Ruxolitinib + Foretinib (first compound 2.53 µM) it was 0.899; with Ruxolitinib + Foretinib (first compound 8 µM) it was 0.777; with Ruxolitinib + Pictilisib (first compound 0.253 µM) it was 0.355; with Ruxolitinib + Pictilisib (first compound 0.8 µM) it was 0.416; in the assay with Ruxolitinib + Pictilisib (first compound 2.53 µM) it was 0.435. Further, the relative viability with Ruxolitinib + Pictilisib (first compound 8 µM) came to 0.471.

On to COR-L23, for which the relative viability turned out to be 0.753 with Vismodegib + OSI-027 (first compound 0.08 µM); 0.743 in the assay with Vismodegib + OSI-027 (first compound 0.253 µM); 0.742 with Vismodegib + OSI-027 (first compound 0.8 µM); 0.793 with Vismodegib + OSI-027 (first compound 2.53 µM); 0.751 in the assay with Vismodegib + OSI-027 (first compound 8 µM); 0.343 in assay [1] (first compound 0.08 µM). The relative viability in assay [1] (first compound 0.253 µM) stood at 0.273; in assay [1] (first compound 0.8 µM), 0.371; in assay [1] (first compound 2.53 µM), 0.248; in assay [1] (first compound 8 µM), 0.222; with Ruxolitinib + Foretinib (first compound 0.08 µM), 0.944; with Ruxolitinib + Foretinib (first compound 0.253 µM), 0.988. Further, the relative viability with Ruxolitinib + Foretinib (first compound 0.8 µM) worked out at 1.07; in the assay with Ruxolitinib + Foretinib (first compound 2.53 µM), 1; with Ruxolitinib + Foretinib (first compound 8 µM), 0.772; with Ruxolitinib + Pictilisib (first compound 0.08 µM), 0.755; with Ruxolitinib + Pictilisib (first compound 0.253 µM), 0.748; in the assay with Ruxolitinib + Pictilisib (first compound 0.8 µM), 0.795. Further, the relative viability amounted to 0.625 with Ruxolitinib + Pictilisib (first compound 2.53 µM) and 0.531 with Ruxolitinib + Pictilisib (first compound 8 µM).

Consider Calu-6, for which the relative viability came to 0.936 with Ruxolitinib + Foretinib (first compound 0.08 µM); 0.884 in the assay with Ruxolitinib + Foretinib (first compound 0.253 µM); 0.99 with Ruxolitinib + Foretinib (first compound 0.8 µM); 0.81 with Ruxolitinib + Foretinib (first compound 2.53 µM); 0.523 with Ruxolitinib + Foretinib (first compound 8 µM); 0.99 with Ruxolitinib + Pictilisib (first compound 0.08 µM). In addition, the relative viability was 0.943 with Ruxolitinib + Pictilisib (first compound 0.253 µM), 0.958 in the assay with Ruxolitinib + Pictilisib (first compound 0.8 µM), 0.828 in the assay with Ruxolitinib + Pictilisib (first compound 2.53 µM) and 0.667 with Ruxolitinib + Pictilisib (first compound 8 µM).

Regarding EBC-1, the relative viability stood at 0.0875 with Ruxolitinib + Foretinib (first compound 0.08 µM); 0.0905 in the assay with Ruxolitinib + Foretinib (first compound 0.253 µM); 0.116 with Ruxolitinib + Foretinib (first compound 0.8 µM); 0.115 with Ruxolitinib + Foretinib (first compound 2.53 µM); 0.0903 in the assay with Ruxolitinib + Foretinib (first compound 8 µM); 0.386 in the assay with Ruxolitinib + Pictilisib (first compound 0.08 µM). The relative viability came to 0.309 with Ruxolitinib + Pictilisib (first compound 0.253 µM), 0.583 in the assay with Ruxolitinib + Pictilisib (first compound 0.8 µM), 0.353 with Ruxolitinib + Pictilisib (first compound 2.53 µM) and 0.32 in the assay with Ruxolitinib + Pictilisib (first compound 8 µM).
